Laboratory results reported in article PMC5323398, “Restoration of Epithelial Sodium Channel Function by Synthetic Peptides in Pseudohypoaldosteronism Type 1B Mutants” (Frontiers in Pharmacology, 2017).
Numbering of substitutions follows the chain as printed.

Tests used:
[1] = target: human ENaC with the frameshift γV543fs (γ subunit of 597 residues, abnormal sequence after S542), co-expressed with WT α and β subunits (human) (UniProt P37088)
[2] = target: T1, αG327C mutant hENaC (Homo sapiens, UniProt P37088+P51168+P51170, G327C); assay: Whole-cell patch clamp, amiloride-sensitive Na+ current, αG327C ENaC; format: cell-based; conditions: αG327C activated by AP318; 10 μM amiloride
T1 construct: expressed in transfected cells
T1 sequence (P37088 1-669 G327C): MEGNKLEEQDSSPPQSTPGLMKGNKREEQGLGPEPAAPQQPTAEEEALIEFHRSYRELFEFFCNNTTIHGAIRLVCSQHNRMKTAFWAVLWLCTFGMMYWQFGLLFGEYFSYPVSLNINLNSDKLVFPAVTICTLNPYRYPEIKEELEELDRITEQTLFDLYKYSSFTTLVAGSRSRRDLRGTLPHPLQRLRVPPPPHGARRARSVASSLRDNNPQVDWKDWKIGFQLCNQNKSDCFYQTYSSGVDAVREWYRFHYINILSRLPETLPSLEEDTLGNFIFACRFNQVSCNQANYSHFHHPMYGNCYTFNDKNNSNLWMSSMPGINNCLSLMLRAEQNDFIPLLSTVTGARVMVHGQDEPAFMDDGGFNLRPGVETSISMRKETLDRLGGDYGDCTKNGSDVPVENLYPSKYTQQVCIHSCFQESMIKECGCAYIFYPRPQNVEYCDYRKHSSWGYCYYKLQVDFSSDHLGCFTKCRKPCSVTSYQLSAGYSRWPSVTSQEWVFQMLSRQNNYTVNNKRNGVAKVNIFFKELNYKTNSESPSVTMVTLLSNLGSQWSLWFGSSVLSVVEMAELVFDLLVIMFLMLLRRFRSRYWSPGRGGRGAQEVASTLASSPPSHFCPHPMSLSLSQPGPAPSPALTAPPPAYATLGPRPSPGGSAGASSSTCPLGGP
T1 sequence (P51168 1-640): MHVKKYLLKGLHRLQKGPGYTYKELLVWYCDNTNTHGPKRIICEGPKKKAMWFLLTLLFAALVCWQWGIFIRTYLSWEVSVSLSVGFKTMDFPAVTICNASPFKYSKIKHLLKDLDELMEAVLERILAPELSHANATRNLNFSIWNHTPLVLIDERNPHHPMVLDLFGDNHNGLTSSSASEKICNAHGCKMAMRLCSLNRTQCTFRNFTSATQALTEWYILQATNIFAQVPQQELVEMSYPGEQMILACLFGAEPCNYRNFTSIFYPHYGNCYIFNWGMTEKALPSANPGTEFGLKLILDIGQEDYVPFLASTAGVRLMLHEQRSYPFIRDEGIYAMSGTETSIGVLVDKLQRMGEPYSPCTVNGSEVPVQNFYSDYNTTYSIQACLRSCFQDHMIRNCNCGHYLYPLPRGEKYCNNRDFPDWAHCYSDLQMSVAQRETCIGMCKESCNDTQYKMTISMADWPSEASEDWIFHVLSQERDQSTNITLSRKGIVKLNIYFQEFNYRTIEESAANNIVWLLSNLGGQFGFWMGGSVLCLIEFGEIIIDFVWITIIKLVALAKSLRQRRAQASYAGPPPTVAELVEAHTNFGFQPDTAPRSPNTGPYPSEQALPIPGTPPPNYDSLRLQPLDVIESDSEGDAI
T1 sequence (P51170 1-649): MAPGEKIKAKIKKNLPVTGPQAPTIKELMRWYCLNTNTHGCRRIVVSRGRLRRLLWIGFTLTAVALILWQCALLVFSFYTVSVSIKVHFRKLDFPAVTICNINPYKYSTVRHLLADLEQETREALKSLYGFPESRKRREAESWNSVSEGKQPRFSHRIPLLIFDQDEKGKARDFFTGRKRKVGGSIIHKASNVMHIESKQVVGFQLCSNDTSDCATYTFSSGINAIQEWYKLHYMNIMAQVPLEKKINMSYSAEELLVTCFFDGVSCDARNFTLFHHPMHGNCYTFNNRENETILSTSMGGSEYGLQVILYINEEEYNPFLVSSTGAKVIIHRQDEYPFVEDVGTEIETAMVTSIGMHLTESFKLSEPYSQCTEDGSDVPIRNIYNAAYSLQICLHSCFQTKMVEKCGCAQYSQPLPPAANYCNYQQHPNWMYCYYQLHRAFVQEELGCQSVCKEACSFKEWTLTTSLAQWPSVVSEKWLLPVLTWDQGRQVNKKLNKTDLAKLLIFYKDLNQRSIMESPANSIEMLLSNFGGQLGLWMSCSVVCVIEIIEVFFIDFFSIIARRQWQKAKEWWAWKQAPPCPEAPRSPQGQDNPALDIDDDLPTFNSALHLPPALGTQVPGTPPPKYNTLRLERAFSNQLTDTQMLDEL
Protocol: (§1) Human embryonic kidney HEK-293 cells (ATCC no. CRL-1573) in passages 3–25, were seeded in Dulbecco's modified Eagle medium/F12 nutrient mixture Ham plus L-glutamine (DMEM/F-12; Gibco™ by Life Technologies, LifeTech Austria), supplemented with 10% fetal bovine serum (FBS; Gibco™ by Life Technologies, LifeTech Austria) and 1% penicillin-streptomycin (Sigma-Aldrich, Vienna, Austria). Cells were maintained at 37°C with 5% CO2 in a humidified incubator.
(§2) Point mutations and single base (insertions or) deletions, causing a frameshift, were introduced into cDNA encoding α-, β-, or γ-hENaC using QuikChange Lightning Site-Directed Mutagenesis Kit (Agilent Technologies, CA, USA). Pairs of mutagenic primers were designed individually with the Primer Design Program provided on the producer's website. The same bases were changed as reported in patients or at least resulting in the same protein products. The designed primers were ordered after checking their properties using the DNA Oligos Design Tool from Sigma-Aldrich, Vienna, Austria (Table 1).
(§3) HEK-293 cells were transfected 1 day after cell seeding using X-tremeGENE HP DNA transfection reagent (Roche Diagnostics, Mannheim, Germany) according to the manufacturer's protocol. […]

[3] = target: T2, αQ101K mutant hENaC (Homo sapiens, UniProt P37088+P51168+P51170, Q101K); assay: Whole-cell patch clamp, amiloride-sensitive Na+ current, αQ101K ENaC; format: cell-based; conditions: αQ101K activated by solnatide; 10 μM amiloride
T2 construct: expressed in transfected cells
T2 sequence (P37088 1-669 Q101K): T1 sequence (P37088 1-669 G327C) with Q101K, C327G
T2 sequence (P51168 1-640): T1 sequence (P51168 1-640)
T2 sequence (P51170 1-649): T1 sequence (P51170 1-649)
Protocol: as §1, §2, §3

[4] = test system: mock-transfected HEK-293 cells; assay: Whole-cell current of mock-transfected cells; format: cell-based, human
Protocol: Whole-cell currents were recorded from transfected HEK-293 cells with an Axopatch 200B amplifier, DigiData 1440A and pCLAMP10.2 software (Axon Instruments, Union City, CA) at room temperature (19–22°C) 48–72 h after transfection. Currents were recorded at 10 kHz and filtered at 5 kHz. The chamber contained 1 ml bath solution of the following composition (in mM): 145 NaCl, 2.7 KCl, 1.8 CaCl2, 2 MgCl2, 5.5 glucose, and 10 HEPES, adjusted to pH 7.4 with 1 M NaOH solution. The borosilicate glass patch pipettes (Harvard Apparatus, Holliston, MA) had resistances of 2–4 MΩ. The pipette solution contained (in mM): 135 potassium methane sulphonate, 10 KCl, 6 NaCl, 1Mg2ATP, 2 Na3ATP, 10 HEPES, and 0.5 EGTA, adjusted to pH 7.2 with 1 M KOH solution. Data acquisition and storage were processed directly to a PC. […] Differences were evaluated by one-way ANOVA followed by Tukey's post-hoc test.

Row | EC50 of the increase of amiloride-sensitive Na+ current, whole-cell patch clamp at -100 mV, transfected HEK-293 cells, peptide 2-200 nM [1] [nM] | Compound | block of peptide-induced activation [2] | block of peptide-induced activation [3] | amiloride-sensitive or peptide-induced current ([4]; 10 μM amiloride or 200 nM peptide) | whole-cell current ([4]; 10 μM amiloride, control 11.28 ± 5.68 pA) [pA]
1 | 47.7 | AP318 (peptide) |  |  |  | 
2 |  | N=C(N)NC(=O)c1nc(Cl)c(N)nc1N [amiloride] | can be blocked by 10 μM amiloride | can be blocked by 10 μM amiloride | about zero | 10.47 ± 6.23
